Source: EP0290583B1, “$g(a) OLIGONUCLEOTIDES” (CENTRE NATIONAL DE LA RECHERCHE SCIENTIFIQUE (CNRS), priority 1986, dated 1988)

How the values were obtained:
[1] = test system: β-d^5' (ApCpGpGpApApTpApTpApGpC]^3'; test: Half-dissociation temperature (T 1/2) of the hybridisation complex with a parallel complementary beta strand; assay type: binding; settings: 10 mM cacodylate de sodium/0,1M NaCl, pH = 7, 10 µM
Description: (§1) Les nouveaux produits de formule générale (I) selon l'invention et les produits de formule générale (I) dans laquelle L représente un atome d'oxygène, R et R' représentent chacun un atome d'hydrogène et B représente un base nucléique naturelle forment des complexes d'hybridation avec les séquences complémentaires d'ARN beaucoup plus stables que ceux qui sont formés avec l'ADN. La stabilité peut être mesurée par la température de demi-transition des complexes (T 1/2) lors d'une élévation de température. Les valeurs de T 1/2 sont déterminées à la concentration de 10⁻⁵M en α -oligonucléotide dans un tampon à pH = 7 contenant du cacodylate de sodium (10⁻²M) et du chlorure de sodium (0,1 M). Les résultats sont rassemblés dans les Tableaux I.
(§2) Dans les hybrides formés par les dérivés des α-oligonucléotides selon l'invention avec les séquences d'acides nucléiques complémentaires les deux brins possèdent généralement la même orientation.

[2] = test system: β-d^5' [AGATTTGAG]^3'; test: as above; assay type: binding; settings: 10 mM cacodylate de sodium/0,1M NaCl, pH = 7, 10 µM
Description: as §1, §2

[3] = test system: β-d^5'[GAGTTTAGA]^3'; test: Complex formation with the antiparallel beta strand; assay type: binding; settings: antiparallel sequence; 10 mM cacodylate de sodium/0,1M NaCl, pH = 7, 10 µM
Description: as §1, §2

[4] = test system: fragment d'ADN double brin; test: Specific cleavage of double-stranded DNA by a phenanthroline-coupled alpha-oligonucleotide; assay type: biochemical; settings: en présence de 1 mM spermine
Protocol: (§3) L'α-D-oligonucléotide décrit à l'exemple XIV (5µM) est dissous dans un tampon à pH 7 contenant 10 mM cacodylate de sodium et 0,1 M NaCl. […] Du sulfate cuivrique (1µM) et de l'acide β-mercaptopropionique (1 mM) sont ajoutés à 0°C et le mélange est incubé à 0°C pendant 3 heures. De la bathocuproine est ajoutée pour arrêter la réaction. Le mélange est disposé sur un gel de polyacrylamide à 18 % et soumis à l'électrophorèse.
La position des sites de coupure sur le double brin indique que l'α-D-oligothymidylate XIV est orienté parallèlement au brin contenant la séquence A₈.

[5] = test system: fragment d'ADN simple brin (10 nM) de séquence d(^5'TGAGTGAGTAAAAAAAATGAGTGCCAA^3'); test: Specific cleavage of single-stranded DNA by a phenanthroline-coupled alpha-oligonucleotide; assay type: biochemical; settings: 5µM, sulfate cuivrique (1µM), acide β-mercaptopropionique (1 mM), 0°C, 3 heures
Protocol: as §3

[Acr(CH₂)₅]α-d(pCpCpTpTpApTpApTpT) [Acr(CH₂)₅-α-d^5' [pCpCpTpTpApTpApTpT]^3']
température de demi-dissociation (T 1/2) [1]: 35 °C

Acr(CH₂)₅ α-d^5'[TCTAAACTC]^3'
température de demi-dissociation (T 1/2) [2]: 27 °C | complexe mis en évidence au-dessus de 0°C [3]: Aucun complexe

(Phe-CH₂)α-[(sp)(Tp)₇T] [XIV]
coupure de l'ADN double brin [4]: induit des coupures sur les deux brins de la double hélice | coupure de l'ADN simple brin (sites de coupures) [5]: sites de coupures sont révélés
